# Experimental data reported in PubChem BioAssay AID1259407 (Chemical Carcinogenesis Research Information System (CCRIS), 2018).
# The source made the active and inactive calls. No rule for the calls is given here.
# Tested on: CCRIS mutagenicity, Ames/micronucleus/aberration tests
# Assay: CCRIS mutagenicity studies
# [1] = Test System: AMES SALMONELLA TYPHIMURIUM, Strain/Indicator: TA98, Metabolic Activation: NONE, Method: PREINCUBATION
# [2] = Test System: AMES SALMONELLA TYPHIMURIUM, Strain/Indicator: TA98, Metabolic Activation: NONE, Method: STANDARD PLATE
# [3] = Test System: AMES SALMONELLA TYPHIMURIUM, Strain/Indicator: TA98, Metabolic Activation: RAT, LIVER, S-9, AROCLOR 1254, Method: STANDARD PLATE
# [4] = Test System: AMES SALMONELLA TYPHIMURIUM, Strain/Indicator: TA100, Metabolic Activation: NONE, Method: STANDARD PLATE
# [5] = Test System: AMES SALMONELLA TYPHIMURIUM, Strain/Indicator: TA100, Metabolic Activation: RAT, LIVER, S-9, Method: STANDARD PLATE
smiles,measurement,setting,value
O=S1OCC2C(CO1)C1(Cl)C(Cl)=C(Cl)C2(Cl)C1(Cl)Cl (configuration not stated),mutagenic call,"End Point: IN VITRO CHROMOSOMAL ABERRATIONS, Test System: HUMAN PERIPHERAL BLOOD LYMPHOCYTES, Metabolic Activation: NONE",active; positive (structural changes)
same,mutagenic call,"End Point: In vitro chromosomal aberrations, Test System: Human (one male) lymphocytes, Metabolic Activation: None",inactive; negative. (200 ug/ml was toxic to the cells.)
same,mutagenic call,"End Point: In vitro chromosomal aberrations, Test System: Human (one male) lymphocytes, Metabolic Activation: Rat, Liver, S-9",inactive; negative. (200 ug/ml was toxic to the cells.)
same,mutagenic call,"End Point: In vitro chromosomal aberrations, Test System: Human lymphocytes, Metabolic Activation: None",active; positive (structural changes and ploidy)
same,mutagenic call,"Test System: AMES SALMONELLA TYPHIMURIUM, Strain/Indicator: TA97A, Metabolic Activation: NONE, Method: PREINCUBATION",active; positive
same,mutagenic call,"Test System: AMES SALMONELLA TYPHIMURIUM, Strain/Indicator: TA97A, Metabolic Activation: NONE, Method: STANDARD PLATE",inactive; negative
same,mutagenic call,"Test System: AMES SALMONELLA TYPHIMURIUM, Strain/Indicator: TA97A, Metabolic Activation: RAT, CECAL CELL FREE EXTRACT, Method: STANDARD PLATE",inactive; negative
same,mutagenic call,"Test System: AMES SALMONELLA TYPHIMURIUM, Strain/Indicator: TA97A, Metabolic Activation: RAT, LIVER, S-9, AROCLOR 1254, Method: STANDARD PLATE",inactive; negative
same,mutagenic call,"Test System: AMES SALMONELLA TYPHIMURIUM, Strain/Indicator: TA97A, Metabolic Activation: RAT, LIVER, S-9, PHENOBARBITAL, Method: PREINCUBATION",active; positive
same,mutagenic call,"Test System: AMES SALMONELLA TYPHIMURIUM, Strain/Indicator: TA97A, Metabolic Activation: RAT, LIVER, S-9, PHENOBARBITAL, Method: STANDARD PLATE",inactive; negative
same,mutagenic call,"Test System: AMES SALMONELLA TYPHIMURIUM, Strain/Indicator: TA98, Metabolic Activation: HAMSTER, LIVER, S-9, AROCLOR 1254 (10%), Method: PREINCUBATION",inactive; negative
same,mutagenic call,[1],inactive; negative
same,mutagenic call,[2],inactive; negative
same,mutagenic call,"Test System: AMES SALMONELLA TYPHIMURIUM, Strain/Indicator: TA98, Metabolic Activation: RAT, CECAL CELL FREE EXTRACT, Method: STANDARD PLATE",inactive; negative
same,mutagenic call,"Test System: AMES SALMONELLA TYPHIMURIUM, Strain/Indicator: TA98, Metabolic Activation: RAT, LIVER, S-9, AROCLOR 1254 (10%), Method: PREINCUBATION",inactive; negative
same,mutagenic call,[3],inactive; negative
same,mutagenic call,"Test System: AMES SALMONELLA TYPHIMURIUM, Strain/Indicator: TA98, Metabolic Activation: RAT, LIVER, S-9, PHENOBARBITAL, Method: PREINCUBATION",inactive; negative
same,mutagenic call,"Test System: AMES SALMONELLA TYPHIMURIUM, Strain/Indicator: TA98, Metabolic Activation: RAT, LIVER, S-9, PHENOBARBITAL, Method: STANDARD PLATE",inactive; negative
same,mutagenic call,"Test System: AMES SALMONELLA TYPHIMURIUM, Strain/Indicator: TA100, Metabolic Activation: HAMSTER, LIVER, S-9, AROCLOR 1254 (10%), Method: PREINCUBATION",inactive; negative
same,mutagenic call,"Test System: AMES SALMONELLA TYPHIMURIUM, Strain/Indicator: TA100, Metabolic Activation: NONE, Method: PREINCUBATION",inactive; negative
same,mutagenic call,[4],inactive; negative
same,mutagenic call,"Test System: AMES SALMONELLA TYPHIMURIUM, Strain/Indicator: TA100, Metabolic Activation: RAT, CECAL CELL FREE EXTRACT, Method: STANDARD PLATE",inactive; negative
same,mutagenic call,"Test System: AMES SALMONELLA TYPHIMURIUM, Strain/Indicator: TA100, Metabolic Activation: RAT, LIVER, S-9, AROCLOR 1254 (10%), Method: PREINCUBATION",inactive; negative
same,mutagenic call,"Test System: AMES SALMONELLA TYPHIMURIUM, Strain/Indicator: TA100, Metabolic Activation: RAT, LIVER, S-9, AROCLOR 1254, Method: STANDARD PLATE",inactive; negative
same,mutagenic call,"Test System: AMES SALMONELLA TYPHIMURIUM, Strain/Indicator: TA100, Metabolic Activation: RAT, LIVER, S-9, PHENOBARBITAL, Method: PREINCUBATION",inactive; negative
same,mutagenic call,"Test System: AMES SALMONELLA TYPHIMURIUM, Strain/Indicator: TA100, Metabolic Activation: RAT, LIVER, S-9, PHENOBARBITAL, Method: STANDARD PLATE",inactive; negative
same,mutagenic call,"Test System: AMES SALMONELLA TYPHIMURIUM, Strain/Indicator: TA102, Metabolic Activation: NONE, Method: STANDARD PLATE",inactive; negative
same,mutagenic call,"Test System: AMES SALMONELLA TYPHIMURIUM, Strain/Indicator: TA102, Metabolic Activation: RAT, LIVER, S-9, PHENOBARBITAL, Method: PREINCUBATION",inactive; negative
same,mutagenic call,"Test System: AMES SALMONELLA TYPHIMURIUM, Strain/Indicator: TA102, Metabolic Activation: RAT, LIVER, S-9, PHENOBARBITAL, Method: STANDARD PLATE",inactive; negative
same,mutagenic call,"Test System: AMES SALMONELLA TYPHIMURIUM, Strain/Indicator: TA1535, Metabolic Activation: HAMSTER, LIVER, S-9, AROCLOR 1254 (10%), Method: PREINCUBATION",inactive; negative
same,mutagenic call,"Test System: AMES SALMONELLA TYPHIMURIUM, Strain/Indicator: TA1535, Metabolic Activation: NONE, Method: PREINCUBATION",inactive; negative
same,mutagenic call,"Test System: AMES SALMONELLA TYPHIMURIUM, Strain/Indicator: TA1535, Metabolic Activation: RAT, LIVER, S-9, AROCLOR 1254 (10%), Method: PREINCUBATION",inactive; negative
same,mutagenic call,"Test System: AMES SALMONELLA TYPHIMURIUM, Strain/Indicator: TA1537, Metabolic Activation: HAMSTER, LIVER, S-9, AROCLOR 1254 (10%), Method: PREINCUBATION",inactive; negative
same,mutagenic call,"Test System: AMES SALMONELLA TYPHIMURIUM, Strain/Indicator: TA1537, Metabolic Activation: NONE, Method: PREINCUBATION",inactive; negative
same,mutagenic call,"Test System: AMES SALMONELLA TYPHIMURIUM, Strain/Indicator: TA1537, Metabolic Activation: RAT, LIVER, S-9, AROCLOR 1254 (10%), Method: PREINCUBATION",inactive; negative
same,mutagenic call,"Test System: ESCHERICHIA COLI, Strain/Indicator: AB1157, Metabolic Activation: NONE, Method: PREINCUBATION",active; positive
same,mutagenic call,"Test System: UDS Rat hepatocytes, Strain/Indicator: Primary hepatocytes. Thy incorp, Metabolic Activation: None, Method: Autoradiography",inactive; negative. (toxic at 51 ug/ml)
Cc1ccc(C)c(N=Nc2c(O)ccc3ccccc23)c1,mutagenic call,[2],inactive; negative
same,mutagenic call,"Test System: AMES SALMONELLA TYPHIMURIUM, Strain/Indicator: TA98, Metabolic Activation: RAT, LIVER, S-9, Method: STANDARD PLATE",inactive; negative
same,mutagenic call,[4],inactive; negative
same,mutagenic call,[5],inactive; negative
CC(=O)Nc1ccc(Cc2ccc(N)cc2)cc1,mutagenic call,[2],inactive; negative
same,mutagenic call,"Test System: AMES SALMONELLA TYPHIMURIUM, Strain/Indicator: TA98, Metabolic Activation: RAT, LIVER, S-9, PCB, Method: STANDARD PLATE",inactive; negative
same,mutagenic call,[4],inactive; negative
same,mutagenic call,"Test System: AMES SALMONELLA TYPHIMURIUM, Strain/Indicator: TA100, Metabolic Activation: RAT, LIVER, S-9, PCB, Method: STANDARD PLATE",inactive; negative
C1=CC2OC2c2ccc3c4c5c(cccc5cc3c21)C=C4 (configuration not stated),mutagenic call,[2],inactive; negative
same,mutagenic call,"Test System: AMES SALMONELLA TYPHIMURIUM, Strain/Indicator: TA98, Metabolic Activation: RAT, LIVER, S-9, AROCLOR 1254 (0.4, 0.8, 1.15 OR 1.5 MG/PLATE), Method: STANDARD PLATE",active; positive
same,mutagenic call,[3],active; positive
Cc1ccc2ccc3c4ccccc4ccc3c2c1,mutagenic call,"Test System: AMES SALMONELLA TYPHIMURIUM, Strain/Indicator: TA100, Metabolic Activation: RAT, LIVER, MICROSOMES, 3-METHYLCHRYSENE, Method: STANDARD PLATE",inactive; negative
same,mutagenic call,"Test System: AMES SALMONELLA TYPHIMURIUM, Strain/Indicator: TA100, Metabolic Activation: RAT, LIVER, MICROSOMES, AROCLOR 1254, Method: STANDARD PLATE",active; positive
same,mutagenic call,"Test System: AMES SALMONELLA TYPHIMURIUM, Strain/Indicator: TA100, Metabolic Activation: RAT, LIVER, MICROSOMES, Method: STANDARD PLATE",inactive; negative
CCCCOS(=O)(=O)c1ccc(C)cc1,mutagenic call,"End Point: IN VITRO MICRONUCLEUS, Test System: MOUSE LYMPHOMA L5178Y CELLS, Metabolic Activation: NONE",active; positive
same,mutagenic call,"End Point: IN VITRO MICRONUCLEUS, Test System: MOUSE LYMPHOMA L5178Y CELLS, Metabolic Activation: RAT, LIVER, S-9",inactive; negative
same,mutagenic call,"End Point: In vitro micronucleus, Test System: Chinese Hamster Ovary (CHO-WBL) cells, Metabolic Activation: None",active; positive (p<0.01)
same,mutagenic call,[4],active; positive
same,mutagenic call,[5],active; positive
CCCCOC(=O)C=Cc1ccc([N+](=O)[O-])o1,mutagenic call,[1],active; positive
